Data from PubChem BioAssay (NCI).
Where “and” joins values, the source holds several entries; their conditions need not be identical. Equal values may be shown once.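 Assay format: 96-well plates, 48-hour exposure. GI50 = concentration required for 50% inhibition of growth. The concentration for full growth arrest is given as TGI.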

Columns and labels:
Experiment in all cases: NCI-60 cell line screen, 48 h
[1] = system: EKVX NSCLC
[2] = system: LOX IMVI melanoma
[3] = system: IGROV1 ovarian
[4] = system: SK-MEL-28 melanoma
[5] = system: HL-60(TB) leukemia
[6] = system: RPMI-8226 leukemia
[7] = system: NCI-H23 lung
[8] = system: HCC-2998 colon
[9] = system: UO-31 renal
[10] = system: OVCAR-8 ovarian

Row | Structure (SMILES) | TGI [1] | TGI [2] | TGI [3] | TGI [4] | TGI [5] | TGI [6] | TGI [7] | TGI [8] | TGI [9] | TGI [10] | GI50 [1] | GI50 [2] | GI50 [3] | GI50 [4] | GI50 [5] | GI50 [6] | GI50 [7] | GI50 [8] | GI50 [9] | GI50 [10]
1 | Cn1cc(-c2ccc3c4ccccc4n(C)c3c2)c2ccccc21 | > 100 µM | > 100 µM | > 100 µM | > 100 µM | > 100 µM | > 100 µM | > 100 µM | > 100 µM | > 100 µM | > 100 µM |  |  |  |  |  |  |  |  |  | 
2 | CCCC(=O)Oc1ccc(/C(=C(\C)c2ccc(Cl)cc2)c2ccc(OCCN(CC)CC)cc2)cc1 | 21 µM | 3.4 µM | 21.6 µM | 3.91 µM | 5.52 µM | 9.02 µM | 15.6 µM | 7.06 µM | 3.11 µM | 11.9 µM | 7.2 µM | 1.85 µM | 6.99 µM | 1.91 µM | 2.23 µM | 2.92 µM | 3.69 µM | 2.67 µM | 1.43 µM | 3.43 µM
3 | COc1ccc(-c2cn(C)c3c2-n2cccc2C3=O)cc1O | 51.5 µM | 13.3 µM | 75.2 µM | 33.8 µM | > 100 µM | 17.5 µM | 16.5 µM | 6.46 µM | > 100 µM | > 100 µM | 14.6 µM | 3.71 µM | 26.9 µM | 11.4 µM | 3.48 µM | 2.05 µM | 3.22 µM | 2.48 µM | 16.1 µM | 19.7 µM
4 | C[C@H]1C[C@@H](n2c(Nc3ccc(OC(F)(F)F)cc3)nc3cc(CCC(=O)O)ccc32)CC(C)(C)C1 | 32.2 µM | 25.9 µM | 28.7 µM | 22.5 µM | 29.1 µM | 50.9 µM | 30.5 µM | 20.8 µM | 21.5 µM | 35.1 µM | 10.5 µM | 11.8 µM | 12.6 µM | 8.26 µM | 10.3 µM | 10.1 µM | 12.9 µM | 6.68 µM | 9.38 µM | 13.2 µM
5 | COc1ccc2nc3cc(Cl)ccc3c(Nc3ccccc3-c3ccccc3Nc3c4ccc(Cl)cc4nc4ccc(OC)cc34)c2c1 | > 100 µM | 47.4 µM | > 71.1 µM | > 86.6 µM | 16.8 µM | > 47.7 µM | > 100 µM | > 67.5 µM | > 100 µM | > 100 µM |  |  |  |  |  |  |  |  |  | 
6 | COc1ccc2[nH]c3c(C)c4c(c(C)c3c2c1)CN(C)C=C4 | 38.8 µM | 28.1 µM | 39.8 µM | 13.5 µM | 52.3 µM | 61.9 µM | 3.28 µM | 13.9 µM | 81.1 µM | 13.6 µM |  |  |  |  |  |  |  |  |  | 
7 | CCC/C=C/C=C/C(=O)OC1/C(=C/C(=O)OC)CC2CC(C(C)O)OC(=O)CC(O)CC3CC(OC(C)=O)C(C)(C)C(O)(CC4C/C(=C/C(=O)OC)CC(/C=C/C(C)(C)C1(O)O2)O4)O3 (stereo not given) | > 10.9 µM and 9.53 µM and > 12.5 µM | > 10.9 µM and 11 µM and > 12.5 µM | > 10.9 µM and 6.06 µM and > 12.5 µM | > 10.9 µM and 11 µM and > 12.5 µM | 10.9 µM and 5.43 µM and > 12.5 µM | > 10.9 µM and 11 µM and > 12.5 µM | > 10.9 µM and 11 µM and > 12.5 µM | > 10.9 µM and 9 µM and > 12.5 µM | > 10.9 µM and 5.23 µM and > 12.5 µM | > 10.9 µM and 11 µM and > 12.5 µM | > 10.9 µM and 5.21 µM and > 12.5 µM | > 10.9 µM and 8.02 µM and > 12.5 µM | > 10.9 µM and 5.09 µM and > 12.5 µM | 8.54 µM and > 12.5 µM | 4.61 µM and 1.81 µM and > 12.5 µM | 8.95 µM and > 12.5 µM | > 12.5 µM | > 10.9 µM and 4.72 µM and > 12.5 µM | > 10.9 µM and 2.48 µM and > 12.5 µM | > 10.9 µM and 7.33 µM and > 12.5 µM
8 | O=C(O)CCC(O)=C1S(=O)(=O)OCCOS1(=O)=O | > 100 µM | > 100 µM | > 100 µM | > 100 µM | > 100 µM | > 100 µM | > 100 µM | > 100 µM | > 100 µM | > 100 µM |  |  |  |  |  |  |  |  |  | 
9 | CCOC(=O)c1ccc(N=Cc2ccc(N(CCC#N)S(=O)(=O)c3ccccc3)cc2C)cc1 | > 100 µM | > 100 µM | > 100 µM | > 100 µM | > 100 µM | > 100 µM | > 100 µM | 58.1 µM | > 100 µM | > 100 µM |  |  |  |  |  |  |  |  |  | 
10 | Nc1[nH]nc(Nc2ccccc2)c1-c1nc2ccccc2s1 | 4.28 µM | 2.97 µM | 8.88 µM | 4.29 µM | 7 µM | 6.65 µM | 5.04 µM | 4.21 µM | 7.16 µM | 5.98 µM | 1.26 µM | 1.59 µM | 2.58 µM | 2.06 µM | 2.61 µM | 2.24 µM | 1.73 µM | 1.88 µM | 1.33 µM | 2.36 µM
